{"source": "patent US20250241971A1", "about": "(priority 2022, published 2025)", "key": {"broiler chickens [1]": {"test_system": "broiler chickens", "details": "in vivo"}, "broiler chickens [2]": {"test_system": "broiler chickens", "details": "in vivo", "remark": "listed apart in the source"}, "il8 and ifnγ genes": {"test_system": "il8 and ifnγ genes", "details": "in vivo"}, "Poultry": {"test_system": "Poultry", "details": "in vivo; cited from earlier work"}, "Ruminants": {"test_system": "Ruminants", "details": "in feed; cited from earlier work"}}, "data": [{"molecule": "CC1=C[C@H]2O[C@@H]3[C@H](O)C[C@](C)([C@@]2(CO)[C@H](O)C1=O)[C@]31CO1", "note": "[DON, Deoxynivalenol]", "values": [{"measurement": "number of lesions on the tissue", "setting": "pig jejunum explants", "value": "increases the number of lesions on the tissue"}, {"measurement": "decrease in villus length", "setting": "pig jejunum explants; pig", "value": "approximately 35%"}, {"measurement": "lesions in the liver", "setting": "broiler chickens [1]", "value": "induces a strong increase in lesions in the liver"}, {"measurement": "macroscopic appearance of the liver", "setting": "broiler chickens [1]", "value": "appears paler, slightly yellower; a hemorrhagic lesion is clearly visible"}, {"measurement": "size (height) of intestinal villi of the jejunum", "setting": "broiler chickens [2]", "value": "induces a reduction in the size of the intestinal villi of the jejunum"}, {"measurement": "il8 mRNA expression in jejunum", "setting": "il8 and ifnγ genes", "value": "strong increase"}, {"measurement": "interferon gamma (ifnγ) mRNA expression in jejunum", "setting": "il8 and ifnγ genes", "value": "strong increase"}, {"measurement": "concentration from which first zootechnical effects are observed", "setting": "Poultry", "value": "≥ 5 mg of DON per kilogram of feed"}, {"measurement": "feed concentration up to which little sensitivity appears", "setting": "Ruminants", "value": "up to 12 mg/kg of feed"}]}]}
